Measurements: patent US20250108070A1, “METHOD FOR REPROGRAMMING CD8+ T CELLS TO ENHANCE THEIR THERAPEUTIC POTENTIAL AND APPLICATIONS THEREOF” (INSTITUT PASTEUR, priority 2022, published 2025)

Key:
[1] = tested on: mTORC1 and mTORC2 pathways; assay: Screening of GSK3 inhibitors: phospho-S6 / phospho-AKT staining (activation of mTORC1 and mTORC2 pathways); assay type: cell-based, human; settings: FIG. 12A, in words
Protocol: (§1) FIG. 12. Screening molecules for reprogramming human CD8^+ T cells Total CD8^+ T cells were purified and treated for 12 hs with titrated doses of GSK3 inhibitors or DMSO vehicle control. After drug washout, cells were stimulated for 48 hs with plate-bound anti-CD3/anti-CD28 antibodies (at 1 mg/mL), followed by flow cytometry analyses. A. Upon stimulation, intracellular cytokine and phospho-protein staining was performed, the latter for the detection of phospho-S6 and phospho-AKT proteins (indicative of activation of mTORC1 and mTORC2 pathways, respectively). The fold change in the frequency of IFN-γ^+TNF-α^+ and pS6^+pAKT^+ cells induced by the treatment with each GSK3 inhibitor, relative to DMSO control, was analyzed. […] B. Fold change in the expression of the indicated markers and memory phenotypes induced by anti-CD3/anti-CD28 antibody stimulation relative to unstimulated cells (at least 3 donors per condition). TCM: T central memory; TEM: T effector memory; TTM: T transitional memory; TTE: T terminal effector; TSCM: T stem cell memory.
(§2) For reprogramming of CD8^+ T cells followed by polyclonal stimulation, cells were isolated by negative magnetic bead sorting (Stemcell Technologies). For reprogramming of CD8^+ T cells followed by antigen-specific stimulation, PBMC and magnetically separated CD8^+ T cells and non-CD8^+ T cells were used (REAlease® CD8 MicroBead Kit; Miltenyi Biotech). Then, CD8^+ T cells were treated with a GSK3 inhibitor (6-Bromoindirubin-3′-oxime; BIO; Sigma-Aldrich), at 3 μM, or an equivalent concentration of dimethyl sulfoxide (DMSO) vehicle control, in complete medium, for 12 hs at 37° C., 5% CO2. Non-CD8 cells were left resting during this time in complete medium. CD8^+ T cells were washed with complete medium and stimulated with the peptide pool in presence of non-CD8 T cells.
(§3) In some experiments, cells were culture in RPMI medium without glucose (MP Biomedicals). CD8^+ T cell proliferation was evaluated by CFSE dilution (at 1 μM, Thermo Fisher Scientific). In additional experiments, reprogrammed CD8^+ T cells were stimulated with IL-7 or IL-15 (both at 10 ng/mL; R&D) and cultured for 6 days. In all the cases, cells were cultured at a density of 2×10^6 cells/mL.
(§4) After cultures, cells were stained with the LIVE/DEAD Fixable Aqua Dead Cell Stain kit (Thermo Fisher Scientific), with anti-CD3 Alexa Fluor 700 or APC efluor 780 and anti-CD8 PE Texas Red antibodies, accordingly. […] In some experiments, cells were stained with APC-conjugated dextramers (Immudex), incubated for 15 minutes at room temperature. Additional surface staining panels included anti-HLA-DR Superbright 780, anti-CD38 Superbright 600, anti-PD-1 BV421, anti-LAG-3 APC efluor 780, anti-TIM3 PE Cy7, and anti-TIGIT BV786 antibodies, or anti-CD122 PE and anti-CD215 FITC antibodies. The BD Transcription Factor Buffer Set kit (BD Biosciences) was used for cell fixation and permeabilization. […] Cell acquisition was performed using LSR II or ARIA III flow cytometers (both from BD Biosciences), and data were analyzed with FlowJo v.10 software (BD Biosciences).
(§5) The inventors explored GSK3 inhibitors to expand the array of molecules that could be used for CD8^+ T cell reprogramming. They implemented a screening approach that combined the evaluation of cytokine polyfunctionality of CD8^+ T cells (IFN-γ+TNFα+) vs the activation of mTORC1 and mTORC2 pathways (pS6+pAKT+) upon treatment with the GSK3 inhibitors and subsequent polyclonal stimulation.

[2] = tested on: GSK3; settings: cited from earlier work
[3] = tested on: human CD8+ T cells; assay: Screening of GSK3 inhibitors: markers and memory phenotypes by flow cytometry; assay type: cell-based; settings: FIG. 12B, in words
Protocol: as §1, §2, §3, §4

[4] = tested on: human CD8+ T cells; assay: Screening of GSK3 inhibitors: cytokine polyfunctionality (IFN-γ+TNF-α+) of CD8+ T cells after anti-CD3/anti-CD28 stimulation; assay type: cell-based; settings: FIG. 12A, in words
Protocol: as §1, §2, §3, §4, §5

O=C1Nc2cc(Br)ccc2/C1=C1/Nc2ccccc2/C1=N\O [BIO, 6-bromoindirubin-3′-oxime]
frequency of pS6+pAKT+ cells / activation of mTORC pathway [1]: lower frequency | beta-catenin phosphorylation ([2]; Meijer L et al., 2003): reduces | phosphorylation on Tyr276/216 GSK3a/p activation site ([2]; Meijer L et al., 2003): inhibits | Wnt/β-catenin/TCF-1 pathway ([2]; reference 42): induce the activation | CD127+ T-bet− phenotype [3]: preserved | acquisition of T-bet, HLA-DR and CD38, PD-1 and LAG-3 [3]: restrained | phenotype / profile promoted in CD8+ T cells [3]: promoted a less-differentiated phenotype | IFN-γ+TNF-α+ cells (polyfunctionality) relative to vehicle control [4]: promoted
